T/C data for 26 compounds are collected here from PubChem BioAssay AID330 (DTP/NCI, 2004).

Values joined by “and” are separate entries in the source; they are usually repeats but may differ in a detail not shown here. Equal entries are not always repeated. Toxic doses and inconclusive results are not listed.

This assay has as its system P388 leukemia ip, CD2F1 mice, survival T/C. The experiment in a line: NCI In Vivo Anticancer Drug Screen. Data for tumor model P388 Leukemia (intraperitoneal) in CD2F1 (CDF1) mice. Conditions: endpoint: median survival time, higher = longer survival. The method in brief: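 Mice carrying the transplanted tumor received test compound or vehicle. Survival was recorded in each group, and the value is the treated-group measurement divided by that of the vehicle-treated control group.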

Where [1] appears, read: dose: 60.0 mg/kg/injection, schedule: Q01DX005 (ip), vehicle: Klucel (hydroxypropylcellulose) (HPC).
Where [2] appears, read: dose: 120.0 mg/kg/injection, schedule: Q01DX005 (ip), vehicle: Klucel (hydroxypropylcellulose) (HPC).
Setting [3] is: dose: 240.0 mg/kg/injection, schedule: Q01DX005 (ip), vehicle: Klucel (hydroxypropylcellulose) (HPC).
The mark [4] stands for this setting: dose: 50.0 mg/kg/injection, schedule: Q01DX009 (ip), vehicle: saline with Tween-80.
[5] abbreviates: dose: 100.0 mg/kg/injection, schedule: Q01DX009 (ip), vehicle: saline with Tween-80.
The mark [6] stands for this setting: dose: 30.0 mg/kg/injection, schedule: Q01DX005 (ip), vehicle: saline with Tween-80.
Setting [7] is: dose: 60.0 mg/kg/injection, schedule: Q01DX005 (ip), vehicle: saline with Tween-80.
The mark [8] stands for this setting: dose: 50.0 mg/kg/injection, schedule: Q01DX005 (ip), vehicle: Klucel (hydroxypropylcellulose) (HPC).
Where [9] appears, read: dose: 100.0 mg/kg/injection, schedule: Q01DX005 (ip), vehicle: Klucel (hydroxypropylcellulose) (HPC).
The mark [10] stands for this setting: dose: 200.0 mg/kg/injection, schedule: Q01DX005 (ip), vehicle: Klucel (hydroxypropylcellulose) (HPC).
[11] abbreviates: dose: 25.0 mg/kg/injection, schedule: Q01DX009 (ip), vehicle: saline with Tween-80.
[12] abbreviates: dose: 100.0 mg/kg/injection, schedule: Q01DX009 (ip), vehicle: Klucel (hydroxypropylcellulose) (HPC).
Where [13] appears, read: dose: 200.0 mg/kg/injection, schedule: Q01DX009 (ip), vehicle: Klucel (hydroxypropylcellulose) (HPC).
The mark [14] stands for this setting: dose: 50.0 mg/kg/injection, schedule: Q01DX009 (ip), vehicle: Klucel (hydroxypropylcellulose) (HPC).
Setting [15] is: dose: 12.5 mg/kg/injection, schedule: Q01DX005 (ip), vehicle: Klucel (hydroxypropylcellulose) (HPC).
[16] abbreviates: dose: 25.0 mg/kg/injection, schedule: Q01DX005 (ip), vehicle: Klucel (hydroxypropylcellulose) (HPC).
[17] abbreviates: dose: 120.0 mg/kg/injection, schedule: Q01DX005 (ip), vehicle: saline with Tween-80.
Setting [18] is: dose: 240.0 mg/kg/injection, schedule: Q01DX005 (ip), vehicle: saline with Tween-80.
Setting [19] is: dose: 100.0 mg/kg/injection, schedule: Q04DX002 (ip), vehicle: saline with Tween-80.
The mark [20] stands for this setting: dose: 200.0 mg/kg/injection, schedule: Q04DX002 (ip), vehicle: saline with Tween-80.
[21] abbreviates: dose: 400.0 mg/kg/injection, schedule: Q04DX002 (ip), vehicle: saline with Tween-80.

Take `O=C(OC1CC2CCCCC2CC1(O)c1ccccc1)c1cccc(Cl)c1` (stereo unspecified): the T/C is, setting by setting: (dose: 100.0 mg/kg/injection, schedule: Q01DX001 (ip), vehicle: acetone) 99 % of control; (dose: 200.0 mg/kg/injection, schedule: Q01DX001 (ip), vehicle: acetone) 103 % of control; (dose: 400.0 mg/kg/injection, schedule: Q01DX001 (ip), vehicle: acetone) 104 % of control.
As for `O=c1c2ccccc2c2sc3c4ccccc4c(=O)c3c12`, the T/C under setting [1] is 104 % of control, the T/C under setting [2] is 99 % of control and the T/C under setting [3] is 97 % of control.
On to `CCOc1ccc2nc3cc(N=Nc4ccc(N(C)C)cc4)ccc3c(N)c2c1`, for which the T/C is, setting by setting: under setting [4], 110 % of control; under setting [5], 110 % of control.
For the compound `O=c1oc2ccccc2c(O)c1C(c1ccc2c(c1)OCO2)N1CCCC1` (stereo unspecified), the T/C by setting is: (dose: 15.0 mg/kg/injection, schedule: Q01DX005 (ip), vehicle: saline with Tween-80) 100 % of control; under setting [6], 102 % of control; under setting [7], 99 % of control and 103 % of control.
On to `CC(=O)n1oc2c(Br)cc(Br)cc2c1=O`, for which the T/C under setting [8] was 116 % of control, the T/C under setting [9] is 103 % of control and the T/C under setting [10] is 107 % of control.
For the compound `O=[N+]([O-])/C=C/c1ccccc1Cl`, the T/C (dose: 10.0 mg/kg/injection, schedule: Q01DX009 (ip), vehicle: other) was 115 % of control and the T/C (dose: 30.0 mg/kg/injection, schedule: Q04DX003 (ip), vehicle: other) is 118 % of control.
Turning to `CCCCOC1OCN(C(C)(C)C)CC1(C)C` (stereo unspecified), the T/C by setting is: under setting [11], 101 % of control; under setting [4], 100 % of control; under setting [5], 113 % of control; (dose: 200.0 mg/kg/injection, schedule: Q01DX009 (ip), vehicle: saline with Tween-80) 111 % of control.
For `C[C@@H]1CN1C1=CC(=O)C(N2C[C@H]2C)=CC1=O`, the T/C (dose: 0.31 mg/kg/injection, schedule: Q01DX009 (ip), vehicle: gum acacia) is 122 % of control; the T/C (dose: 1.25 mg/kg/injection, schedule: Q01DX009 (ip), vehicle: gum acacia) is 169 % of control; the T/C (dose: 2.5 mg/kg/injection, schedule: Q01DX009 (ip), vehicle: gum acacia) was 166 % of control and 169 % of control; the T/C (dose: 5.0 mg/kg/injection, schedule: Q01DX009 (ip), vehicle: gum acacia) was 169 % of control and 173 % of control; the T/C (dose: 37.0 micrograms/kg/injection, schedule: Q01DX009 (ip), vehicle: gum acacia) was 102 % of control; the T/C (dose: 75.0 micrograms/kg/injection, schedule: Q01DX009 (ip), vehicle: gum acacia) is 113 % of control. In addition, the T/C reads like this: (dose: 150.0 micrograms/kg/injection, schedule: Q01DX009 (ip), vehicle: gum acacia) 117 % of control; (dose: 310.0 micrograms/kg/injection, schedule: Q01DX009 (ip), vehicle: gum acacia) 111 % of control.
Consider `ClB1NB(Cl)NB(Cl)N1`, for which the T/C reads like this: under setting [12], 108 % of control and 93 % of control; under setting [13], 108 % of control and 86 % of control; (dose: 400.0 mg/kg/injection, schedule: Q01DX009 (ip), vehicle: Klucel (hydroxypropylcellulose) (HPC)) 109 % of control and 95 % of control.
Consider `CCn1c(=O)c2[nH]c(=S)[nH]c2n(C2CC2)c1=O`, for which the T/C was 97 % of control under setting [14], 101 % of control under setting [12] and 113 % of control under setting [13].
On to `CCCCN(CCCC)CC(O)c1cc(-c2ccc(C(F)(F)F)cc2)nc(-c2ccc(C(F)(F)F)cc2)c1` (stereo unspecified), for which the T/C was 109 % of control (dose: 6.25 mg/kg/injection, schedule: Q01DX009 (ip), vehicle: saline with Tween-80); 109 % of control (dose: 12.5 mg/kg/injection, schedule: Q01DX009 (ip), vehicle: saline with Tween-80); 100 % of control under setting [11].
Turning to `CC(C)C1C(=O)N(c2ccccc2)N(C)C1C` (stereo unspecified), the T/C (dose: 100.0 mg/kg/injection, schedule: Q04DX003 (ip), vehicle: Klucel (hydroxypropylcellulose) (HPC)) is 100 % of control and the T/C (dose: 200.0 mg/kg/injection, schedule: Q04DX003 (ip), vehicle: Klucel (hydroxypropylcellulose) (HPC)) was 104 % of control.
As for `CC(=O)Oc1c(OC(C)=O)c(C=O)c2c(OC(C)=O)c(-c3c(C)cc4c(C(C)C)c(OC(C)=O)c(OC(C)=O)c(C=O)c4c3OC(C)=O)c(C)cc2c1C(C)C`, the T/C runs as follows: under setting [15], 102 % of control; under setting [16], 107 % of control; under setting [8], 103 % of control and 111 % of control.
On to `CCCCCCCCCCCCCCCCCCOCC(CO)OC` (stereo unspecified), for which the T/C was 101 % of control and 115 % of control (dose: 50.0 mg/kg/injection, schedule: Q01DX005 (ip), vehicle: saline with Tween-80); 115 % of control and 123 % of control (dose: 100.0 mg/kg/injection, schedule: Q01DX005 (ip), vehicle: saline with Tween-80); 123 % of control (dose: 200.0 mg/kg/injection, schedule: Q01DX005 (ip), vehicle: saline with Tween-80); 97 % of control (dose: 400.0 mg/kg/injection, schedule: Q01DX005 (ip), vehicle: saline with Tween-80).
Consider `CC1=C(C)[C@]2(C)C(C)[C@]13Cn1c(=O)n(-c4ccccc4)c(=O)n1[C@@]32C` (stereo partly specified), for which the T/C reads like this: under setting [8], 95 % of control; under setting [9], 94 % of control; under setting [10], 100 % of control.
As to `CCCCCCCC/C=C\CCCCCCCC(=O)OCC(COC(=O)CCCCCCC/C=C\CCCCCCCC)OC(=O)N(CCCl)CCCl`, the T/C runs as follows: under setting [6], 118 % of control; under setting [7], 115 % of control; under setting [17], 174 % of control; under setting [18], 205 % of control and 259 % of control.
Turning to `CCOC(=O)C(Cc1csc2ccc(Cl)cc12)NC(C)=O` (stereo unspecified), the T/C under setting [14] is 94 % of control, the T/C under setting [12] was 95 % of control and the T/C under setting [13] is 99 % of control.
On to `CCCCCOCc1cc(C)no1`, for which the T/C runs as follows: under setting [7], 104 % of control; under setting [17], 109 % of control; under setting [18], 104 % of control.
With `COc1cc(C=Nc2cc(Cl)c(Cl)c(Cl)c2)ccc1N(CCCl)CCCl`, the T/C (dose: 0.79 mg/kg/injection, schedule: Q01DX009 (ip), vehicle: Klucel (hydroxypropylcellulose) (HPC)) is 105 % of control.
As to `COc1ccc(C2c3cc4c(cc3OC(C)(O)C2C)OCO4)c(OC)c1OC` (stereo unspecified), the T/C by setting is: under setting [19], 100 % of control; under setting [20], 96 % of control; under setting [21], 86 % of control.
Take `CC1(c2ccccc2)NN(S(=O)(=O)c2ccccc2)C(c2ccccc2)(c2ccccc2)/C1=N/Nc1ccccc1` (stereo unspecified): the T/C reads like this: (dose: 50.0 mg/kg/injection, schedule: Q01DX001 (ip), vehicle: saline with Tween-80) 93 % of control; (dose: 100.0 mg/kg/injection, schedule: Q01DX001 (ip), vehicle: saline with Tween-80) 88 % of control; (dose: 200.0 mg/kg/injection, schedule: Q01DX001 (ip), vehicle: saline with Tween-80) 89 % of control.
Take `COC(=O)C1c2ccccc2CC(=O)N1NC(C)=O` (stereo unspecified): the T/C is 104 % of control under setting [14] and 101 % of control under setting [12].
In the case of `CN1CN(C)CN(Cc2ccc([N+](=O)[O-])cc2)C1`, the T/C under setting [16] is 93 % of control, the T/C under setting [8] is 97 % of control, the T/C under setting [9] was 94 % of control and the T/C under setting [10] was 91 % of control.
For the compound `COc1cc([C@@H]2c3cc4c(c(OC)c3C[C@H]3COC(=O)[C@@H]32)OCO4)cc(OC)c1OC`, the T/C by setting is: under setting [15], 100 % of control; under setting [16], 103 % of control; under setting [8], 103 % of control and 111 % of control.
Take `Cc1ccc(S(=O)(=O)N=C(N(C)C)N(C)C)cc1`: the T/C under setting [19] is 99 % of control, the T/C under setting [20] is 100 % of control and the T/C under setting [21] was 104 % of control.
For the compound `CN(N=O)N1C(=O)SCC(c2ccccc2)(c2ccccc2)C1=O`, the T/C by setting is: under setting [1], 97 % of control; under setting [2], 90 % of control; under setting [3], 88 % of control.
